Consider two molecules from article PMC6479817, “In Vitro and In Situ Characterization of the Intestinal Absorption of Capilliposide B and Capilliposide C from Lysimachia capillipes Hemsl” (Molecules, 2019).

The nature of data set [1]: Stability in Krebsringer buffer (K-R buffer) at different pH values. Type of data set: physicochemical. To be noted: pH 5.0, pH 6.55, pH 7.43. The text has this:
The SPIP model was used to further explore the intestinal permeability features of CAPB and CAPC in rats. Firstly, we determined the stability of CAPB and CAPC in the Krebsringer buffer (K-R buffer) across different pH values. […] In other words, CAPB and CAPC were stable in a weakly acidic environment. Because the pH of intestinal juice was close to 6.55, we used a K-R buffer at pH 6.55 as the perfusion solution.
Figure 4 The characterization of the intestinal permeability of capilliposide B (CAPB) and capilliposide C (CAPC) in single-pass intestinal perfusion (SPIP) model. The stability of CAPB and CAPC were measured at different pH values (pH 5, pH 6.55, and pH 7.34, respectively) (A). The absorption rate constants (ka, s^−1) values (B) and effective permeability (Peff, cm/s) values (C) for CAPB and CAPC at different initial drug concentrations (20 μg/mL, 50 μg/mL, and 80 μg/mL, respectively). p < 0.05 (*) compared with the group at 80 μg/mL. The Ka values (D) and Peff values (E) of CAPB and CAPC obtained from the duodenum, jejunum, and ileum in SPIP models. p < 0.05 (*) compared with the duodenum. All the results are expressed as mean ± S.D. (n = 3).

The next data set concerns caco-2 cells. Description: MTT colorimetric assay of caco-2 cell viability. The class given is cell-based, human. Particulars: 24 h; for effect on cell growth (MTT): concentration less than 40 μg/mL; for effect on cell viability (MTT): concentration over 40 μg/mL. The procedure: The effects of CAPs on caco-2 cell viability were checked by 3-(4,5-dimethyl-2-thiazolyl)-2,5-diphenyl-2-H-tetrazolium bromide (MTT) colorimetric assay, which is adapted to analyze cell proliferation and drug cytotoxicity. […] In brief, caco-2 cells were seeded at 4 × 10^3 cells/well into 96-well culture plates and were incubated at 37 °C for 24 h before the assay. The cells were treated with different concentrations (0, 10, 20, 40, 80, 120, 160 and 240 μg/mL) of CAPs. After 24 h of incubation, 20 µL of MTT (5 mg/mL) was added to each well and the cells were incubated for another 4 h. After removing the culture medium, 100 µL of dimethyl sulfoxide was added to dissolve the contents in the plate. Then, the absorbance was measured at 570 and 630 nm (reference wavelength) using a microplate reader (Multiskan MK3; Thermo Fisher Scientific, Waltham, MA, USA).
Figure S2: Capilliposides (CAPs) inhibited the proliferation of caco-2 cells. Caco-2 cells were treated for 24 h with different concentrations (0, 10, 20, 40, 80, 120, 160 and 240 ug/mL) of CAPs. p < 0.05(*), comparison with the group of 0 ug/mL. All the results are expressed as mean ± S.D. (n=3).
A general note: Tetrazolium dyes change colour on reduction, which living cells bring about.

In a further data set the test system is caco-2 cell monolayer. Description: Transport (permeability) across caco-2 cell monolayer, bidirectional, with and without inhibitors. The class given is in vitro ADME, human. The procedure:
Caco-2 cells were routinely cultured in high glucose Dulbecco’s modified Eagle’s medium (DMEM) containing 10% fetal bovine serum (FBS), 1% nonessential amino acids, and 1% penicillin/streptomycin. Cells were kept at 37 °C in a 90% relative humidity atmosphere containing 5% CO2. Cells were seeded onto transwells purchased from Corning Costar Co. (New York, NY, USA) on 12-well plates for transport studies and uptake studies at 5 × 10^4 cells per insert. Cells were grown for 20 days. […] DMEM was removed and the monolayer was washed with Hank’s Balanced Salt Solution (HBSS). The blank HBSS was replaced by 0.4 mL of HBSS containing 40, 20 and 10 μg/mL of drug on the apical (AP) side and 2.1 mL of HBSS on the basolateral (BL) side. In the AP-BL direction studies, 0.4 mL of HBSS containing 40 μg/mL drug and P-gp inhibitor (53 μg/mL verapamil); MRP2 inhibitor (17.9 μg/mL indomethacin); or the co-inhibitor of P-gp, MRP2 and CYP3A4 (10 μg/mL cyclosporin A) were added to the AP side; 2.1 mL of HBSS was added to the BL side. In the BL-AP direction studies, 0.4 mL of HBSS containing 40 μg/mL drug and different inhibitors were added to the BL side, and 2.1 mL of HBSS was added to AP side. Samples (0.4 mL) were taken from the BL or AP side after 45, 60 and 90 min incubation at 37 °C. An additional 0.4 mL of HBSS was added at the same time. The concentrations of samples were analyzed by LC-MS. […] Linear regression was carried out to obtain the steady-state appearance rate of the drug on the receiver side.

On the set-up of data set [2]: method as in PMID 24313264. Particulars: cited from earlier work.
Data set [3] concerns intestinal segment (duodenum, jejunum, ileum). The class given is in vivo. Particulars: rat; for change of Peff and Ka values at higher drug concentration (80 μg/mL) / change of Peff and Ka values between 20 and 50 μg/mL / increase of Peff with indomethacin / increase of intestinal transport with verapamil / order of Peff and Ka values in three intestinal segments: in vivo. How it is done: Male Sprague-Dawley (SD) rats (280 ± 30 g) were supplied by the Laboratory Animal Center, Zhejiang Chinese Medical University (Zhejiang, China). All animals were fasted overnight (12-18 h) with free access to water before experiments. All experiments were performed in accordance with the guidelines for the care and use of animals as established by the Laboratory Animal Centre, Zhejiang Chinese Medical University (Zhejiang, China) (approval number: ACXK20150016). The perfusion experiment was performed as previously reported. In brief, rats were fasted overnight but permitted to drink water freely the day before the experiments. After being anesthetized, the rats were placed on the surface of a thermostatic device and maintained at 37 °C. An incision of approximately 3 cm was made along the midline of the abdominal cavity to expose the contents of the abdomen. […] Then the incision was made at both sides of the segment. The intestinal contents were rinsed with saline preheated at 37 °C, drained with air, and connected to the perfusion system with the catheter. One-hundred […] of pre-prepared perfusate was taken and preheated at 37 °C. The perfusion was started at a circulation speed of 1.0 mL/min for 10 min. […] Samples were collected in glass tubes (2 mL/per) at 10-min intervals for 90 min. […] The rest of the samples were stored at -20 °C for further studies.

With `CC1(C)C[C@H](O[C@@H]2O[C@H](CO)[C@@H](O)[C@H](O)[C@H]2O)[C@@]23[C@H](O)C[C@]4(C)[C@@](CC[C@@H]5[C@@]6(C)CC[C@H](O[C@@H]7OC[C@H](O[C@@H]8O[C@H](CO)[C@@H](O)[C@H](O)[C@H]8O[C@@H]8OC[C@@H](O)[C@H](O)[C@H]8O)[C@H](O)[C@H]7O[C@@H]7O[C@H](CO)[C@@H](O)[C@H](O)[C@H]7O)C(C)(C)[C@@H]6CC[C@]54C)(O[C@@H]2O)[C@@H]3C1` [CAPC, capilliposide C], in data set [1], the “stability in K-R buffer across pH values” was “more stable at pH 5.0 and pH 6.55 than pH 7.43”. Moreover, in the data set on caco-2 cells, the “effect on cell growth (MTT)” value is on record as “did not inhibit cell growth significantly” and the “effect on cell viability (MTT)” value is reported as “significantly decreased cell viability”. Besides, in the data set on caco-2 cell monolayer, the Papp entry was “less than 2 × 10^−6 cm/s”; the “Papp (BA)/Papp (AB) (efflux ratio, ER)” value is given as 1.0-1.5; the “Papp at high and medium vs lower concentration” value was “significant increase in permeability”; the “Papp over incubation time” value was “upward trend over time”. The “change of permeability in the presence of cyclosporin A” value in the data set on caco-2 cell monolayer is “only a small increase”. Further, the “bioavailability and tissue exposure after oral administration” value in data set [2] is “poor bioavailability and low exposure in tissues”. Also, in data set [3], the “change of permeability with cyclosporin A” value was “increased slightly”; the “change of permeability with ketoconazole vs alone” value is reported as “minimal alteration of permeability”; the “effective permeability (Peff)” value is “less than 0.2 × 10^−4 cm/s”; the “change of Peff and Ka values at higher drug concentration (80 μg/mL)” value was “significant decrease”. In addition, in data set [3], the “change of Peff and Ka values between 20 and 50 μg/mL” value is recorded as “slight increase”; the “increase of Peff with indomethacin” value is reported as 2 fold; the “increase of intestinal transport with verapamil” value is 1.5 fold; the “order of Peff and Ka values in three intestinal segments” value is given as “followed the same pattern as CAPB”.

Take `CCCCCC(=O)O[C@H]1CC(C)(C)C[C@@H]2[C@@]13[C@H](O)C[C@]1(C)[C@@]2(CC[C@@H]2[C@@]4(C)CC[C@H](O[C@@H]5OC[C@H](O[C@@H]6O[C@H](CO)[C@@H](O)[C@H](O)[C@H]6O[C@@H]6OC[C@@H](O)[C@H](O)[C@H]6O)[C@H](O)[C@H]5O[C@@H]5O[C@H](CO)[C@@H](O)[C@H](O)[C@H]5O)C(C)(C)[C@@H]4CC[C@]21C)O[C@H]3O` [CAPB, capilliposide B]: in data set [1], the “stability in K-R buffer across pH values” was “more stable at pH 5.0 and pH 6.55 than pH 7.43”. For the same molecule, in the data set with caco-2 cells, the “effect on cell growth (MTT)” value is on record as “did not inhibit cell growth significantly” and the “effect on cell viability (MTT)” value is “significantly decreased cell viability”. Besides, in the data set on caco-2 cell monolayer, the Papp result is “less than 2 × 10^−6 cm/s”; the “Papp (BA)/Papp (AB) (efflux ratio, ER)” value is listed as 1.0-1.5; the “Papp at high and medium vs lower concentration” value is given as “significant increase in permeability”; the “Papp over incubation time” value is reported as “upward trend over time”. Also, the “change of permeability in the presence of cyclosporin A” value in the data set with caco-2 cell monolayer was found to be 10 fold. For the same molecule, the “bioavailability and tissue exposure after oral administration” value in data set [2] is “poor bioavailability and low exposure in tissues”. Besides, in data set [3], the “change of permeability with cyclosporin A” value is “increased around two-fold”; the “change of permeability with ketoconazole vs alone” value was “two-fold higher permeability”; the “effective permeability (Peff)” value was “less than 0.2 × 10^−4 cm/s”; the “change of Peff and Ka values at higher drug concentration (80 μg/mL)” value is “significant increase”. In data set [3], the “change of Peff and Ka values between 20 and 50 μg/mL” value was “slight decline”; the “increase of Peff with indomethacin” value is 4.2 fold; the “increase of intestinal transport with verapamil” value was found to be 1.5 fold; the “order of Peff and Ka values in three intestinal segments” value is given as “duodenum > jejunum > ileum”.
